Measured values: patent US20160166556A1, “METHODS OF TREATING PULMONARY HYPERTENSION” (Gilead Sciences, Inc., priority 2014, published 2016)

System: ASK1 pathway (p38 phosphorylation) in the rat RV
Experiment: Auranofin model of oxidative stress-induced ASK1 activation in the rat right ventricle (phospho-p38 Western blot)
Type: in vivo, Sprague-Dawley rats
Source text: IP90 was used as a loading control.
In this study, the auranofin model of oxidative stress-induced ASK1 activation was used to determine the effects of ASK1 inhibitor in preventing or inhibiting oxidative stress-induced activation of the ASK1 pathway in the rat RV. ASK1 is normally bound and repressed by the thiol-containing antioxidant protein thioredoxin 1 (Trx1). […] When administered in vivo, auranofin results in ASK1-mediated phosphorylation of p38MAPK, which in turn promotes induction of cytokine/chemokine gene expression.
Rats were then challenged with a single intraperitoneal (ip) injection of auranofin at 30 mg/kg to induce oxidative stress. The levels of phosphorylated p38 in RV lysates were evaluated by Western blot analysis and normalized to IP90.

Row | Structure (SMILES) | auranofin-induced p38 phosphorylation in RV (single oral dose 0.3, 1, 3 or 10 mg/kg, then auranofin 30 mg/kg ip) | normalized level of phosphorylated p38 in RV (p-p38/IP90) (auranofin 30 mg/kg ip alone, mean±SEM, vehicle group 1.0±0.1)
1 | Cc1cc(F)c(C(=O)Nc2cccc(-c3nncn3C(C)C)n2)cc1-n1cnc(C2CC2)c1 [Compound 3, 5-(4-cyclopropyl-1H-imidazol-1-yl)-2-fluoro-N-(6-(4-isopropyl-4H-1,2,4-triazol-3-yl)pyridin-2-yl)-4-methylbenzamide] | dose-dependent reduction | 
2 | CC[PH](CC)(CC)[Au][S][C@@H]1O[C@H](COC(C)=O)[C@@H](OC(C)=O)[C@H](OC(C)=O)[C@H]1OC(C)=O [auranofin, 2,3,4,6-tetra-O-acetyl-1-thio-β-d-glucopyranosato-S-(triethylphosphine) gold] |  | 2.0±0.2
